Like-named read-outs stand apart in the source and are kept apart here.
Key:
[1] = Pharmacokinetics, single intravenous dosing; format: in vivo; settings: Beagle, dog, plasma, 1.0 mg/kg i.v.
[2] = biological target: T1, human GABAA α3β3γ2 receptors (Homo sapiens, UniProt P18507+P34903); assay: [3H]-flumazenil competition binding, HEK293 membranes; settings: 1 nM [3H]-flumazenil
T1 construct: expressed in transfected cells; host or cells: HEK293-EBNA, transient
Protocol: (§1) HEK293-EBNA cells adapted to grow in suspension were transiently transfected with the plasmids containing the desired GABAA receptor subunit cDNAs at α, β, γ, 1:1:2 ratio using XtremeGENE Q2 (Cat. No. 03045595001, Roche Applied Science, RAS, Rotkreuz, Switzerland) as previously described. GABAA α1β2γ2, α2β3γ2, α3β3γ2, α4β3γ2, α5β3γ2 and α6β3γ2 receptor subtypes were expressed in this system. 48 h post transfection, the cells were harvested and washed three times with cold PBS and frozen at − 80 °C.
(§2) Non-specific binding was determined in the presence of 10 μM diazepam.

[3] = biological target: T2, human GABAA α2β3γ2 receptors (Homo sapiens, UniProt P18507+P47869); assay: as above; settings: 1 nM [3H]-flumazenil
T2 construct: expressed in transfected cells; host or cells: HEK293-EBNA, transient
Protocol: as §1, §2

Melanocortin MC4 = tested on: T3, Melanocortin MC4; assay: Cerep binding; parameters: species or system human; settings: 10 μM; [125I]NDP-α-MSH; hum. recomb. (CHO)
T3 construct: purchased Eurofins Cerep

[4] = Pharmacokinetics, single intravenous dosing; format: in vivo, NHP, Cynomolgus macaque; settings: cynomolgus monkey, plasma, 1.0 mg/kg i.v.
[5] = Plasma exposure in EEG study; format: in vivo; settings: human, oral, 240 mg twice daily, mean ± SD
[6] = tested on: Adrenergic α2 (non-selective); assay: Cerep binding; settings: 10 μM; [3H]RX 821002; rat cerebral cortex
[7] = biological target: T4, human GABAA α1β3γ2 receptors (Homo sapiens, UniProt P14867+P18507); assay: [3H]-flumazenil competition binding, HEK293 membranes; settings: 1 nM [3H]-flumazenil
T4 construct: expressed in transfected cells; host or cells: HEK293-EBNA, transient

Prostanoid EP4 = tested on: T5, Prostanoid EP4; assay: Cerep binding; parameters: species or system human; settings: 10 μM; [3H]PGE2; hum. recomb. (CHO)
T5 construct: host or cells: CHO

[8] = tested on: Platelet derived growth factor (PDGF); assay: Cerep binding; settings: 10 μM; [125I]PDGF BB; mouse, Balb/c 3T3 cells
[9] = tested on: T6, Norepinephrine transporter; assay: Cerep binding; parameters: species or system human; settings: 10 μM; [3H]nisoxetine; hum. recomb. (CHO)
T6 construct: host or cells: CHO

healthy male subjects = assay: Study BP25129 single-ascending dose, safety EEG; format: in vivo, human
Protocol: CLINICAL INFORMATION: Safety EEG data from Phase I studies in healthy volunteers
1) Study BP25129 Single-Ascending Dose (SAD) in Healthy Volunteers
Single doses of between 1.5 mg and 1250 mg were administered to groups of eight healthy male subjects (age range 18–44 years) per dose level (6 received active drug, two received placebo). All nine planned cohorts in the Part 1 SAD study were completed, and all subjects completed dosing as planned.
Food Effect (FE) Cohort: Eight subjects were enrolled, all received active drug as planned on two separate occasions, with food condition (Fed or Fasted) on each occasion determined in a randomized manner. All subjects enrolled in the FE portion of Part 1 completed the study.
EEG assessments were made in Cohorts 6, 8, 9 and FE Cohort only:
• Cohort 6: 160 mg (n dosed: 6)
• Cohort 8: 660 mg (n dosed: 6)
• Cohort 9: 1250 mg (n dosed: 6)
• Food effect Cohort: 660 mg ([…]) […]
On the day of dosing, an EEG in the resting, awake state was recorded starting about 1 hour prior to dosing and ending approximately 7 h after dosing. EEG results were recorded either as normal, normal variant or abnormal variant. If an abnormal variant measurement was recorded, then the Investigator could continue recordings as appropriate until a return to […]
participants had several EEGs and several participants had sleep assessments with EEG that were also evaluated: […]

Neurotensin NTS1 (NT1) = tested on: T7, Neurotensin NTS1 (NT1); assay: Cerep binding; parameters: species or system human; settings: 10 μM; [125I]Tyr3-neurotensin; hum. recomb. (CHO)
T7 construct: host or cells: CHO

[10] = tested on: T8, Prostanoid TP (TXA2/PGH2); assay: Cerep binding; parameters: species or system human; settings: 10 μM; [3H]SQ 29548; hum. recomb. (HEK-293)
T8 construct: host or cells: HEK-293

Serotonin transporter = tested on: T9, Serotonin transporter; assay: Cerep binding; parameters: species or system human; settings: 10 μM; [3H]imipramine; hum. recomb. (CHO)
T9 construct: host or cells: CHO

Serotonin 5-HT2B = tested on: T10, Serotonin 5-HT2B; assay: Cerep binding; parameters: species or system human; settings: 10 μM; [125I](±)DOI; hum. recomb. (CHO)
T10 construct: purchased Eurofins Cerep

[11] = tested on: healthy male and female volunteers; assay: Study WP29402 drug-drug interaction with itraconazole; format: in vivo, human
Excerpt: 3) Study WP29402 Drug-Drug Interaction (DDI) Itraconazole in Healthy Volunteers This was an open-label, three treatment, fixed sequence crossover study to investigate the […]
healthy male and female volunteers (age range 18-60 years; n: 12). As systemic basmisanil exposure was predicted to be higher than exposures achiev ed in previous clinical studies, regular EEG examinations were included and reviewed by a neurologist. Multiple oral doses […]
with the CYP3A inhibitor, itraconazole (200 m g OD).
Baseline EEG assessments were performed prior to the study (resting EEG eyes open/closed, intermittent photic stimulation, hyperventilation). On treatment days (1, 3, 5, 8) […]
hours and resting EEG eyes open/closed w ere performed. […]
administered with itraconazole.

[12] = 240 mg BID with itraconazole 200 mg OD versus alone

Cc1onc(-c2ccc(F)cc2)c1COc1ccc(C(=O)N2CCS(=O)(=O)CC2)cn1 [basmisanil]
half-life ([1]; n=3): 9.8 ± 0.8 h
clearance ([1]; n=3, read-out: Total CL): 2.2 ± 0.2 mL/min/kg
Vd ([1]; n=3, read-out: Vss): 1.7 ± 0.2 L/kg
Ki [2]: 510 ± 21 nM
Ki [3]: 458 ± 27 nM
% Inhibition (Melanocortin MC4): 9%
half-life ([4]; n=3): 4.5 ± 1.8 h
clearance ([4]; n=3, read-out: Total CL): 3 ± 0.7 mL/min/kg
Vd ([4]; n=3, read-out: Vss): 0.9 ± 0.6 L/kg
concentration at 1 h ([5]; day 14, 1 h post morning dose): 3280 ± 888 ng/mL
concentration at 4 h ([5]; day 14, 4 h post morning dose): 4030 ± 842 ng/mL
% Inhibition [6]: -8%
Ki [7]: 1030 ± 54 nM
% Inhibition (Prostanoid EP4): 3%
% Inhibition [8]: -17%
% Inhibition [9]: 11%
tolerability (healthy male subjects; single doses 1.5 mg to 1250 mg): well tolerated
EEG assessments (healthy male subjects; single doses of 160 mg, 660 mg and 1250 mg): did not reveal any findings of clinical
% Inhibition (Neurotensin NTS1 (NT1)): -6%
% Inhibition [10]: 5%
% Inhibition (Serotonin transporter): 5%
% Inhibition (Serotonin 5-HT2B): 31%
maximum plasma concentration ([11]; 240 mg BID alone): 3510 ng/mL
maximum plasma concentration ([11]; 240 mg BID co-administered with itraconazole 200 mg OD): 14500 ng/mL
increase in maximum plasma concentration [11, 12]: 312%
increase in systemic exposure at steady state [11, 12]: 374%
maximum plasma concentration ([11]; DDI study, n = 12): approximately 14,500 ng/mL
EEG findings ([11]; co-administered with itraconazole): no epileptiform discharges

Source: publication PMC8032764 (Scientific Reports, 2021)
